Several values for one entry are separate records, joined by “and”; a condition that tells them apart may be missing. Identical values can stand only once.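 Each compound was tested at five concentrations against cells in 96-well plates for 48 hours. The concentration for 50% growth inhibition is given as GI50. Definition used: TGI = concentration required for complete inhibition of growth.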
How the values were obtained:
Test in all cases: NCI-60 cell line screen, 48 h
[1] = system: 786-0 renal
[2] = system: HCT-15 colon
[3] = system: MOLT-4 leukemia
[4] = system: K-562 leukemia
[5] = system: NCI-H23 lung
[6] = system: CCRF-CEM leukemia
[7] = system: ACHN renal
[8] = system: M14 melanoma
[9] = system: CAKI-1 renal
[10] = system: OVCAR-3 ovarian

Row | Compound | GI50 [1] | TGI [1] | GI50 [2] [µM] | TGI [2] [µM] | GI50 [3] [µM] | TGI [3] [µM] | GI50 [4] [µM] | TGI [4] [µM] | GI50 [5] | TGI [5] [µM] | GI50 [6] [µM] | TGI [6] [µM] | GI50 [7] [µM] | TGI [7] [µM] | GI50 [8] [µM] | TGI [8] [µM] | GI50 [9] [µM] | TGI [9] [µM] | GI50 [10] | TGI [10] [µM]
1 | C=C1C(O)C2C(=C(CCc3ccccc3)C13CC3)C(=O)C(C)(CO)C2O (stereo unspecified) | > 100 µM | > 100 µM | > 100 | > 100 | 64.1 | > 100 | > 100 | > 100 | > 100 µM | > 100 | > 100 | > 100 | > 100 | > 100 | > 100 | > 100 | > 100 | > 100 | > 100 µM | > 100
2 | CC(=O)[CH-]C(C)=O.CC(=O)[CH-]C(C)=O.[CH2-]CCC.[CH2-]CCC.[Sn+4] | 0.351 µM | 1.56 µM | 0.68 | 1.99 | 0.37 | > 100 | 0.283 | > 100 | 0.315 µM | 1.39 | 0.0483 | – | 0.487 | 1.66 | 0.608 | 1.86 | 0.151 | 0.874 | 0.707 µM | 1.96
3 | CC(=O)OCC1OC(n2c(-c3ccc(Cl)cc3)ccc(C#N)c2=S)C(OC(C)=O)C(OC(C)=O)C1OC(C)=O (stereo unspecified) | 11.1 µM and 26.2 µM | 55.8 µM and 72.9 µM | – | > 100 | – | > 100 | – | > 100 | 29.3 µM and > 100 µM | > 100 | – | > 100 | – | > 100 | – | > 100 | > 100 | > 100 | 98.7 µM and 48.1 µM | > 100
4 | CC(C)CCC(=O)c1ccoc1 | – | > 100 µM | – | > 100 | – | > 100 | – | > 100 | – | > 100 | – | > 100 | – | > 100 | – | > 100 | – | > 100 | – | > 100
5 | CCCCCC(=O)C(C)C1=Nc2nnc(CCCCCCCc3nnc4n3C(=O)C(C(C)C(=O)CCCCC)=N4)n2C1=O (stereo unspecified) | – | > 100 µM | – | > 100 | – | > 100 | – | > 100 | – | > 100 | – | > 100 | – | > 100 | – | > 100 | – | > 100 | – | > 100
6 | O=C1c2ccccc2-c2c1c1c(=O)[nH]c3ccccc3c1n2Cc1ccccc1 | 33 µM | 85 µM | 59.1 | > 100 | > 100 | > 100 | > 100 | > 100 | 20.5 µM | 46.8 | > 100 | > 100 | 13 | 25.6 | > 100 | > 100 | 33.5 | > 100 | 35 µM | > 100
7 | Cc1sc2nc(-c3ccncc3)c(/C=N/N=C(N)N)n2c1C | 32.2 µM | 92.1 µM | > 100 | > 100 | 18.2 | > 100 | 34.7 | > 100 | 48.4 µM | > 100 | 63 | > 100 | 49.7 | > 100 | 60.2 | > 100 | 40.8 | > 100 | 26 µM | 89.7
8 | COc1ccc(OC)c(/C(C)=N/NC(N)=S)c1 | – | > 100 µM | – | > 100 | – | > 100 | – | > 100 | – | > 100 | – | > 100 | – | > 100 | – | > 100 | – | > 100 | – | > 100
9 | O=c1c(Oc2ccc(F)cc2F)cc2cnc(NC3CCOCC3)nc2n1CCCO | > 25 µM | > 25 µM | > 25 | > 25 | > 25 | > 25 | > 25 | > 25 | > 25 µM | > 25 | > 25 | > 25 | > 25 | > 25 | > 25 | > 25 | > 25 | > 25 | > 25 µM | > 25
10 | C=C(C)C(=O)O[C@H]1C[C@@]23O[C@@H]2CCC(=C[C@H]2OC(=O)C(=C)[C@H]12)COC3O (stereo partly specified) | – | > 100 µM | – | 43.5 | – | 92.2 | – | 44 | – | > 100 | – | 50.1 | – | > 100 | – | > 100 | – | > 100 | – | > 100
11 | COc1ccc(S(=O)(=O)Nc2ccccc2C(=O)O)cc1 | – | > 100 µM | – | > 100 | – | > 100 | – | > 100 | – | > 100 | – | > 100 | – | > 100 | – | > 100 | – | > 100 | – | > 100
12 | CC(C(=O)c1ccccc1)C(c1ccccc1)N1CCOCC1 (stereo unspecified) | – | > 100 µM | – | > 100 | – | > 100 | – | > 100 | – | > 100 | – | > 100 | – | > 100 | – | > 100 | – | > 100 | – | > 100
13 | Cc1nc(SCC(=O)Nc2nc(-c3ccc(Cl)cc3)cs2)n(Nc2ccccc2)c1C | 3.6 µM | 13.7 µM | 5.74 | 23.3 | 2.51 | 9.94 | 0.12 | > 100 | 1.85 µM | 6.02 | 5.49 | > 100 | 3.67 | 14.1 | 3.69 | 16 | 3.93 | 22.6 | 3 µM | 12.1
14 | COc1cc(OC)cc(N(CCNC(C)C)c2ccc3ncc(-c4cnn(C)c4)nc3c2)c1 | 2.9 µM | 13.6 µM | 3.34 | 13.5 | 2.99 | 12 | 2.11 | 10.8 | 6.9 µM | 20.9 | 8.48 | 47 | 2.18 | 8.12 | 4.45 | 18.6 | 2.8 | 13.3 | 5.6 µM | 20.2
15 | CCC[CH2][Sn]1([CH2]CCC)[O]CC(Cc2ccccc2)[O]1 (stereo unspecified) | 1.86 µM | 3.73 µM | 2.24 | 5.82 | 1.64 | 6.07 | 1.67 | 6.64 | 1.53 µM | 4.05 | 1.22 | 4.57 | 2.22 | 4.39 | 2.3 | 5.51 | 1.51 | 4.45 | 2.34 µM | 7.42
16 | Cc1ccc(SC(CCC(Sc2ccc(C)cc2)Sc2ccc(C)cc2)Sc2ccc(C)cc2)cc1 | – | > 100 µM | – | > 100 | – | > 100 | – | > 100 | – | > 100 | – | > 100 | – | > 100 | – | > 100 | – | > 100 | – | > 100
17 | O=C(CO[N+](=O)[O-])Nc1ccc(C(=O)/C=C/c2ccc(Cl)cc2)cc1 | 11.6 µM | 48 µM | 2.03 | 6.53 | 4.68 | 69.4 | 2.6 | > 100 | 4.55 µM | 22.1 | 2.73 | 16.5 | 3.3 | 17 | 2.05 | 4.96 | 11.8 | 54.5 | 2.22 µM | 6.55
18 | COc1ccc(C(=O)/C=C/c2ccc(C)cc2)cc1OC | 15.4 µM | 28.7 µM | 8.52 | 22.1 | 16.6 | 47.2 | 8.31 | 50.2 | 10.4 µM | 22.8 | 25.1 | 61.2 | 14.2 | 28.1 | 13.7 | 26.5 | 18.1 | 52.8 | 2.55 µM | 12.7
19 | Oc1[nH]c2ccccc2c1N=Nc1ccccn1 | – | 29.6 µM | – | > 100 | – | > 100 | – | > 100 | – | > 100 | – | 58.8 | – | 23 | – | > 100 | – | > 100 | – | > 100
20 | S=C(Nc1ccc(Br)cc1)Nc1ccc(Br)cc1 | 38.5 µM | > 100 µM | 3.35 | > 100 | 6.59 | > 100 | 3.62 | > 100 | 3.47 µM | > 100 | 6.19 | > 100 | 4.25 | > 100 | 8.3 | > 100 | 4 | > 100 | 3.58 µM | > 100
21 | C[N-]c1nnnn1C.[Au+].c1ccc([PH+](c2ccccc2)c2ccccc2)cc1 | 1.74 µM | 3.12 µM | 2.17 | 5.72 | 1.62 | 4.22 | 0.518 | 2.88 | 1.97 µM | 4.48 | 0.556 | 3.44 | 4.26 | 8.38 | 2.34 | 5.51 | 2.39 | 5 | 2.58 µM | 6.53
22 | CC(=O)O[C@H]1CC[C@@]2(C)C(=CC[C@H]3[C@@H]4CC[C@H](c5cc(C(F)(F)F)n(C(C)=O)n5)[C@@]4(C)CC[C@@H]32)C1 | – | 17.7 µM | – | 21.8 | – | 8.39 | – | 12.5 | – | 28.6 | – | 9.04 | – | 20.2 | – | 22.1 | – | 24.5 | – | 18.7
23 | CCN(Cc1cccc(F)c1)c1ccc(CO)c(Cl)c1 | 10.5 µM | 30.3 µM | 14.5 | > 100 | 25.2 | > 74.5 | 3.54 | > 100 | 10.8 µM | 74.4 | 24 | > 80.7 | 29.4 | > 100 | 19.2 | 66.8 | 0.907 | > 36.3 | 0.711 µM | 6.71
24 | Cc1nn(-c2nc3ccccc3[nH]2)c(N)c1-c1ccc(Cl)cc1 | 8.31 µM | > 100 µM | 3.88 | > 100 | 3.54 | > 100 | 3.55 | > 100 | 5.23 µM | > 100 | 2.92 | > 100 | 4.6 | > 100 | 6.68 | > 100 | 8.82 | > 100 | 7.66 µM | > 100
25 | Cc1ccc(S(=O)(=O)NC(=O)C2C(=O)CC3(CCCCC3)CC2=O)cc1 | – | > 100 µM | – | 62.4 | – | > 100 | – | > 100 | – | > 100 | – | 69.8 | – | 62.1 | – | > 100 | – | 65.9 | – | 92.2
26 | COc1ccc(S(=O)(=O)N2CC(C)(C)CN(S(=O)(=O)c3ccc(OC)cc3)C2C(=O)NO)cc1 | > 20 µM | > 20 µM | > 20 | > 20 | > 11 | > 20 | > 20 | > 20 | > 20 µM | > 20 | 1.29 | > 16.6 | > 20 | > 20 | > 20 | > 20 | > 14.1 | > 20 | 19.8 µM | > 20
27 | C#CCOc1cccc(-c2ncnc3cc(NC(=O)CCl)ccc23)c1 | 0.208 µM | 2.26 µM | 0.0179 | 1.71 | 0.043 | > 100 | 0.0612 | – | 0.886 µM | 3.14 | 0.0249 | – | 0.419 | 2.06 | 0.66 | 2.64 | 0.2 | 1.76 | 0.617 µM | 2.07
28 | OCc1ccc(-c2ccc(-c3ccc(CO)o3)[se]2)o1 | > 100 µM | > 100 µM | > 100 | > 100 | 41.2 | > 100 | 38.1 | > 100 | > 100 µM | > 100 | 35.5 | > 100 | > 100 | > 100 | 57.8 | > 100 | > 100 | > 100 | 31.3 µM | > 100
29 | COc1ccc(-c2cn[nH]c2-c2cc(OC)c3c(c2)OCO3)cc1 | 0.585 µM | 14.2 µM | 0.0794 | 14.4 | 0.541 | 15.1 | 0.0467 | > 66.2 | 0.43 µM | 14.7 | 0.266 | 21.3 | 0.78 | 48.8 | 0.207 | 12.9 | 0.262 | 24.9 | 0.196 µM | 0.596
